Laboratory results: ChEMBL document CHEMBL1122476 (J Med Chem, 1983)
pIC50: −log10 of the molar value.

Molecular target: Glutamate receptor ionotropic, AMPA (Rattus norvegicus, UniProt P19490+P19491+P19492+P19493)
Assay: Tested for inhibition of Specific DL-[H]Ionotropic glutamate receptor AMPA binding to rat brain membranes
Format: cell membranes, Membrane

COc1noc(C)c1CC(N)C(=O)O (stereo unspecified)
pIC50: < 4.00
